The text below walks through data of ChEMBL document CHEMBL1129339, “Mapping the aspartic acid binding site of Escherichia coli asparagine synthetase B using substrate analogs” (J Med Chem, 1996).

Experiment [1] concerns Asparagine synthetase B (Escherichia coli). The experiment can be described thus: Noncompetitive Inhibition constant of Asparagine synthetase of Glutamine-Dependent Synthetase Activity using ATP as substrate.
Experiment [2] shares this test system. Description: Noncompetitive Inhibition constant of Asparagine synthetase of Glutamine-Dependent Synthetase Activity using aspartate as substrate.
Experiment [3] shares this test system. The experiment can be described thus: Noncompetitive Inhibition constant of Asparagine synthetase of Glutamine-Dependent Synthetase Activity using glutamine as substrate.
For experiment [4] the test system is unchanged. The experiment can be described thus: Non competitive Inhibition constant of Asparagine synthetase of Glutamine-Dependent Synthetase Activity using ATP as substrate.
The test system is the same in experiment [5]. Description: Competitive Inhibition constant of Asparagine synthetase of Glutamine-Dependent Synthetase Activity using aspartate as substrate.
Experiment [6] shares this test system. Description: Non competitive Inhibition constant of Asparagine synthetase of Glutamine-Dependent Synthetase Activity using glutamine as substrate.
Experiment [7] has the same test system. Description: Uncompetitive Inhibition constant of Asparagine synthetase of Glutamine-Dependent Synthetase Activity using glutamine as substrate.

Bounds are passed on as bounds.

On to `C[C@H](C(=O)O)[C@H](N)C(=O)O`, for which the Kii in experiment [1] is 15 mM; in experiment [2] it was greater than 50 mM; in experiment [3], 16.5 mM. The Kis in experiment [1] is 8 mM; in experiment [2] it was 18 mM; in experiment [3], 93 mM.

Regarding `C[C@@H](C(=O)O)[C@H](N)C(=O)O` (single isomer, unassigned), the Kii in experiment [4] was 3.28 mM; in experiment [6] it was 1.71 mM. The Kis in experiment [4] was found to be 0.45 mM; in experiment [5], 0.25 mM; in experiment [6], 1.62 mM.

Take `O=C(O)[C@H]1NCC[C@H]1C(=O)O`: the Kii in experiment [1] worked out at 4.8 mM; in experiment [7], 2.57 mM. Further, the Kis in experiment [1] and in experiment [5] was 2.65 mM in each case.
